From publication PMC12543283, “TastepepAI: An artificial intelligence platform for taste peptide de novo design” (PLOS Computational Biology, 2025)
Ends that are not written are not given here.

Experiments:
[1] = Electronic tongue analysis (Taste-Sensing System SA 402B); set-up: unit not given here; conditions: reference solution 30 mM KCl + 0.3 mM tartaric acid as baseline, first measurement excluded; for Umami: sensor AAE; for Umami / Bitter / Sweet: detection threshold 0, room temperature; for Umami / Bitter / Sour / Salty: four replicates; for Sour: detection threshold -13, room temperature; for Salty: detection threshold -6, room temperature; for Sweet: measured five times
Outline: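 Samples were tested at 0.1 and 1.0 mg/mL on an SA 402B e-tongue fitted with sourness, saltiness, bitterness, sweetness and umami sensors, with 30 mM KCl/0.3 mM tartaric acid as reference and baseline. Thresholds were −13 for sour, −6 for salty and 0 for the rest. Runs at room temperature: four replicates, five for sweetness, first reading discarded.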

[2] = system: human bronchial epithelial cells (BEAS-2B)
[3] = system: human embryonic kidney cells (HEK293T)
[4] = system: human pancreatic ductal epithelial cells (HPNE)
[5] = system: human umbilical vein endothelial cells (HUVEC)

Row | Substance | Umami ([1]; peptide 0.1 mg/mL) | Umami ([1]; peptide 1 mg/mL) | Bitter ([1]; sensor C00, peptide 0.1 mg/mL) | Bitter ([1]; sensor C00, peptide 1 mg/mL) | Sour ([1]; sensor CA0, peptide 0.1 mg/mL) | Sour ([1]; sensor CA0, peptide 1 mg/mL) | Salty ([1]; sensor CT0, peptide 0.1 mg/mL) | Salty ([1]; sensor CT0, peptide 1 mg/mL) | Sweet ([1]; sensor GL1, peptide 0.1 mg/mL) | Sweet ([1]; sensor GL1, peptide 1 mg/mL) | Average cell viability, BEAS-2B [2] | Cell viability, BEAS-2B, Data1 [2] | Cell viability, BEAS-2B, Data2 [2] | Cell viability, BEAS-2B, Data3 [2] | Average cell viability, HEK293T [3] | Cell viability, HEK293T, Data1 [3] | Cell viability, HEK293T, Data2 [3] | Cell viability, HEK293T, Data3 [3] | Average cell viability, HPNE [4] | Cell viability, HPNE, Data1 [4] | further results
1 | SNDPVA [TaPep71] | 1.39 | -5.94 | 7.30 | 4.11 | -2.77 | 14.75 | -20.93 | 9.59 | 5.63 | -5.65 | 108.14 | 100.40 | 109.77 | 114.26 | 97.98 | 102.11 | 95.68 | 96.15 | 94.64 | 86.86 | Cell viability, HPNE, Data2 [4]: 82.76; Cell viability, HPNE, Data3 [4]: 114.31; Average cell viability, HUVEC [5]: 96.51; Cell viability, HUVEC, Data1 [5]: 91.41; Cell viability, HUVEC, Data2 [5]: 97.95; Cell viability, HUVEC, Data3 [5]: 100.19
2 | STGTIR [TaPep51] | 3.88 | -2.27 | 9.91 | 7.16 | -8.80 | 5.93 | -19.53 | 8.48 | 12.64 | -1.16 | 98.34 | 100.20 | 97.01 | 97.81 | 100.60 | 100.60 | 99.65 | 101.55 | 102.86 | 115.31 | Cell viability, HPNE, Data2 [4]: 89.05; Cell viability, HPNE, Data3 [4]: 104.23; Average cell viability, HUVEC [5]: 103.43; Cell viability, HUVEC, Data1 [5]: 102.66; Cell viability, HUVEC, Data2 [5]: 96.59; Cell viability, HUVEC, Data3 [5]: 111.04
3 | SVLEFS [TaPep52] | 2.84 | -2.08 | 7.49 | 4.10 | -6.24 | 5.72 | -20.56 | 3.13 | 9.54 | -1.51 | 105.65 | 105.38 | 103.19 | 108.37 | 99.31 | 102.87 | 97.95 | 97.10 | 109.12 | 112.31 | Cell viability, HPNE, Data2 [4]: 112.11; Cell viability, HPNE, Data3 [4]: 102.93; Average cell viability, HUVEC [5]: 102.10; Cell viability, HUVEC, Data1 [5]: 102.10; Cell viability, HUVEC, Data2 [5]: 88.93; Cell viability, HUVEC, Data3 [5]: 115.27
4 | TAEQVA [TaPep33] | 1.93 | -0.93 | 7.77 | 3.28 | -4.09 | 10.86 | -19.69 | 10.92 | 8.49 | -5.32 | 98.57 | 90.33 | 99.90 | 105.48 | 102.24 | 97.67 | 105.05 | 104.01 | 106.02 | 118.30 | Cell viability, HPNE, Data2 [4]: 86.46; Cell viability, HPNE, Data3 [4]: 113.31; Average cell viability, HUVEC [5]: 104.47; Cell viability, HUVEC, Data1 [5]: 106.25; Cell viability, HUVEC, Data2 [5]: 114.32; Cell viability, HUVEC, Data3 [5]: 92.84
5 | TDPELV [TaPep60] | 1.33 | -5.30 | 7.64 | 3.00 | -2.65 | 12.51 | -20.71 | 9.00 | 5.70 | -9.69 | 110.77 | 105.88 | 117.95 | 108.47 | 103.06 | 105.62 | 98.99 | 104.57 | 111.81 | 114.61 | Cell viability, HPNE, Data2 [4]: 113.81; Cell viability, HPNE, Data3 [4]: 107.02; Average cell viability, HUVEC [5]: 102.29; Cell viability, HUVEC, Data1 [5]: 91.72; Cell viability, HUVEC, Data2 [5]: 106.41; Cell viability, HUVEC, Data3 [5]: 108.73
6 | TIDDELR [TaPep26] | 1.71 | -4.35 | 7.26 | 3.16 | -3.53 | 10.93 | -21.44 | 8.38 | 5.51 | -3.99 | 102.16 | 95.61 | 106.68 | 104.19 | 99.46 | 96.81 | 98.23 | 103.34 | 94.58 | 84.76 | Cell viability, HPNE, Data2 [4]: 94.94; Cell viability, HPNE, Data3 [4]: 104.03; Average cell viability, HUVEC [5]: 104.87; Cell viability, HUVEC, Data1 [5]: 103.54; Cell viability, HUVEC, Data2 [5]: 102.74; Cell viability, HUVEC, Data3 [5]: 108.33
7 | TPRKQ [TaPep37] | 1.93 | -5.88 | 7.34 | 3.28 | -4.03 | 12.49 | -13.82 | 15.18 | 4.01 | -5.26 | 100.23 | 95.41 | 110.47 | 94.82 | 100.47 | 100.50 | 96.44 | 104.48 | 94.98 | 108.02 | Cell viability, HPNE, Data2 [4]: 84.26; Cell viability, HPNE, Data3 [4]: 92.65; Average cell viability, HUVEC [5]: 107.80; Cell viability, HUVEC, Data1 [5]: 111.04; Cell viability, HUVEC, Data2 [5]: 111.52; Cell viability, HUVEC, Data3 [5]: 100.82
8 | TQEVVN [TaPep25] | 1.53 | -3.13 | 7.01 | 3.50 | -6.12 | 7.84 | -23.02 | 5.51 | 8.12 | -3.53 | 110.07 | 118.34 | 103.39 | 108.47 | 100.16 | 103.15 | 98.42 | 98.90 | 92.98 | 92.95 | Cell viability, HPNE, Data2 [4]: 81.96; Cell viability, HPNE, Data3 [4]: 104.03; Average cell viability, HUVEC [5]: 92.52; Cell viability, HUVEC, Data1 [5]: 90.21; Cell viability, HUVEC, Data2 [5]: 89.33; Cell viability, HUVEC, Data3 [5]: 98.03
9 | VAEDLL [TaPep8] | 2.66 | -4.08 | 7.50 | 1.63 | -5.63 | 8.25 | -22.00 | 7.96 | 9.31 | -4.65 | 103.39 | 114.76 | 90.53 | 104.89 | 101.07 | 102.68 | 95.30 | 105.24 | 106.12 | 109.62 | Cell viability, HPNE, Data2 [4]: 99.23; Cell viability, HPNE, Data3 [4]: 109.52; Average cell viability, HUVEC [5]: 103.81; Cell viability, HUVEC, Data1 [5]: 109.13; Cell viability, HUVEC, Data2 [5]: 93.96; Cell viability, HUVEC, Data3 [5]: 108.33
